Entries after “also recorded” stand apart in the source; their conditions may differ.
Key:
[1] = tested on: distamycin binding sites on end-labeled DNA fragment; assay: Footprinting of distamycin; conditions: in words
[2] = tested on: EcoRI site on end-labeled DNA fragment; assay: Footprinting of EcoRI; assay type: binding; conditions: in words
[3] = tested on: distamycin binding sites on end-labeled DNA fragment; conditions: comparison reagents; cited from earlier work
CT DNA = assay: Luminescence in presence of CT DNA; assay type: binding, calf
Protocol: While a linear relationship of the luminescence is observed for Ru(bpy)2 (dppz)^2+ in iso-propanol as a function of temperature this is not the behavior seen when the complex is bound to DNA. When the complex, Ru(bpy)2 (dppz)^2+ is bound to cal-thymus (CT) DNA (100 μM) under low salt conditions at 25 ° C. a biexponential lifetime is observed. A short component which is assigned to a surface interaction, and a long component which is assigned to an intercalated species. As is shown in Table 1, the short component remains relatively unchanged until 70 ° C. when there is an abrupt decrease in the lifetime to 45 ns at 85° C. […] Under these conditions the CT DNA melts and the observed lifetimes of the complexes are similar to those lifetimes measured with single stranded DNA. […] In fact there is an abrupt decrease in the quantum yield at the melting temperature at this salt concentration. This decrease in quantum yield may be explained thus: when the complex is bound to the double stranded form the quenching ability of H2 O is inhibited while at the melting temperature the single stranded form of DNA cannot protect the complex from quenching of H2 O and therefore the observed luminescence is not as intense.

[4] = tested on: poly d(GC).d(GC) B-form DNA; assay: Luminescence with poly d(GC).d(GC), B-form; assay type: binding
Protocol: (§1) FIG. 21A to 21C: Luminescent Enhancement of Ru(bpy)2 (dppz)^2+ with B and Z-form DNA a. Ru(bpy)2 (dppz)^2+ 10 μM in buffer R=50.0 mM NaCl, 5.0 mM Tris-OH, pH=7.0. b. Ru(bpy)2 (dppz)2 10 μM in buffer R, with poly d(GC) d(GC) 100 μM under conditions providing B-form DNA. c. Ru(bpy)2 (dppz)^2+ 10 μM in buffer R-L=20.0 mM NaCl, 2.0 mM Tris-OH, pH 7.0, Co(NH3)6^3+ 4μM., with poly d(GC) d(GC) 100 μM under conditions providing Z-form DNA. All λex =482 nm.
As expected, preparations of Ru(bpy)2(dppz)^2+ (10 μM) in buffer R(^9) and buffer R-L(^10) (pH=7.0) produced species that were nonluminescent solutions (FIG. 21a) (λirr =482 nm).

[5] = tested on: poly d(GC).d(GC) Z-form DNA; assay: Luminescence with poly d(GC).d(GC), Z-form; assay type: binding
Protocol: as §1
Preparations of Ru(bpy)2 (dppz)^2+ (10 μM) in buffer R^(40) and buffer R-L^(41) (pH 7.0) produced species that were nonluminescent solutions (FIG. 21a) (λirr =482 nm). […] Luminescent behavior such as this can be attributed to a highly intercalated species. This must be due to the complex being bound to the Z-form and not due to lower salt conditions (or added Co(NH3)6^3+) as the under the same Z-form producing conditions, calf thymus DNA produces the expected B-form luminescence.
An interesting twist to the luminescent properties of Ru(bpy)2 (dppz)^2+ is observed when this complex is bound to the left handed helix Z-form DNA. […] Luminescent behavior such as this can be attributed to a highly intercalated species. This must be due to the complex being bound to the Z-from nand not due to lower salt conditions (or added Co(NH3)6^3+) as the under the same Z-form producing conditions, calf thymus DNA produces the expected B-from luminescence.

poly d(AT).d(AT) = assay: Luminescence with poly d(AT).d(AT); assay type: binding; conditions: Buffer (50.0 mM NaCl), 25
poly r(AU).r(AU) = assay: Luminescence with poly r(AU).r(AU); assay type: binding
Text: It appears then that luminescence is observed only when the ruthenium complex is intercalated in (or perhaps otherwise protected by) the nucleic acid structure. […] The relative luminescence of ruthenium complexes in the presence of various helical DNA's under varying conditions is shown in Table 16.

B-form DNA = assay: Steady state luminescence polarization with B-form DNA; assay type: binding; conditions: 100 μM DNA
Protocol: (§2) FIG. 22 Steady State Polarization of Ru(bpy)2 (dppz)^2+ with B and Z-form DNA Under the conditions that provide B-form (lower curve) DNA the highest measured polarization is 0.15 with a limiting polarization 0.10. Under the conditions that provide Z-DNA (upper curve) the highest polarization is 0.35 with a limiting polarization of 0.14. Ru(bpy)2 (dppz)^2+ 10 μM, poly d(GC) d(GC) 100 μM, λex =482 nm.
To further test the extent of intercalation of this complex a study of the steady state luminescence polarization of the complex bound to each form of DNA was made. These experiments give information on how rigidly the complex is held by the DNA. […] This reflects a situation where the complex is completely bound to the right-handed helix. As the concentration of Ru(bpy)2 (dppz)^2+ increases, the polarization decreases to limiting value (0.10) at a complex:base pair ratio of 1:10.
To further test the extent of intercalation of this complex we studied the steady state luminescence polarization of the complex bound to each form of DNA. These experiments give information on how rigidly the complex is held by the DNA. […] This reflects a situation where the complex is completely bound to the right-handed helix. As the concentration of Ru(bpy)2 (dppz)^2+ increases, the polarization decreases to a limiting value (0.10) at a complex: base pair rtio of 1:10.

Z-form DNA = assay: Steady state luminescence polarization with Z-form DNA; assay type: binding
Protocol: as §2
Similarly, when 1 μM Ru(bpy)2 (dppz)^2+ is titrated into poly d(GC).d(GC) (100 μM) in the Z-form, luminescence polarization is also observed, but in this case the value is 0.35, over double the value found with the analogous solution with B-form. […] As more complex is added the observed polarization reduces to a limiting value of 0.14, still higher than the analogous sample with B-form, thus further confirming the Z-form is a more rigid structure than the B-form.

[6] = tested on: electrophoresed DNA in agarose gel; assay: Staining of DNA in agarose gels; conditions: in words
Text: One interesting application is the binding of this complex to DNA that has been electrophoresed in a agarose gel.

calf thymus DNA = assay: Equilibrium dialysis of racemic complexes against calf thymus DNA (Scatchard, dialysate CD); assay type: binding; conditions: in words
Protocol: Equilibrium Dialysis: Equlibrium dialysis of the reacemic metal complexes was perforemd against calf-thymus DNA using procedures described previously. (74) The buffer used was 5 mM Tris, 50 mM NaCl at pH 7.5. Samples were agitated on a shaker bath during equilibration which occurred after three to five days, as determined by control samples containing no DNA. After equilibration, volumes of liquid inside and outside the dialysis bags were determined (approximately 1 and 3 mls, respectively) and circular dichroism of the dialysate was meaxured on a Jasco J-40 spectropolarimeter. Final ruthenium concentration inside and outside the bags were measured by visible absorbance. Data anaylsis was performed on a VAX-780 using non-linear least squares analysis.
Equilibrium Dialysis: Equilibrium binding constants for the metal complexes with DNA may be determined classically by equilibrium dialysis. Calf thymus DNA was dialyzed against the series of mixed ligand complexes using a broad range of ruthenium concentrations. […] The results have been plotted according to Scatchard (88), where r is the ratio of bound metal to DNA-phosphate concentration, and cf is the concentration of free metal complex. The data were fit by non-linear least squares analysis to the McGhee and von Hippel equation (8945) governing random non-cooperative binding to a lattice,
where r is the ratio of bound concentration of ruthenium to the concentration of DNA-phosphate, cf is the concentration of ruthenium free in soltuion, Kb the intrinsic binding constant, and the integer /, which measures the degree of anti-cooperativeity, is the size of a binding site in base pairs. The curves shown reflect the best fit after variation of two parameters: the intrinsic binding constant, Kb, and binding stie size, /. For those complexes were cooperatively was observed, the equation (89) incorporating a cooperativity parameter was used.
Equilibrium dialysis experiments additionally offer the opportunity to examine any enantiomeric selectivities associated with binding. After dialysis of the DNA against the racemic mixture, optical activity observed in the dialysate refelects an enrichment in the dialysate in the less favored enantiomer. For most of the complexes, optical activity was found in the dialysate. Values for the extent of enantiomeric selectivity could not be quanitated in the absence of determinations of DE and assignments of absolute configuration. Assuming that the signs of the circular chroism in the ultraviolet ligand bands are the same for the these ligands as that for the parent phenanthroline complex, (90) we have assigned the absolute configuration of these complexes by comparison to spectra for enantiomers of Ru(phen)3^2+ and have compared levels of enantioselectivity qualitatively through measurements of circular dichroic intensity per rutheium bound. Based upon these assumptions, we find enantionmeric selectivities for the polyridyl complexes to reflect an enrichment in the isomer in the dialysate and the preferential binding of the isomer to the right-handed DNA. This observation is consistent with the preferential intercalation of isomers found earlier for Ru(phen)3^2+ in right-handed B-DNA. (63) We may also compare relative enantioselectivities for different ancillary ligands. […] The same comparison may be seen qualitatively between Ru(phen)2 DIP^2+ and Ru(bpy)2 DIP^2+.

Stability / handling = assay type: physicochemical; conditions: in words
pBR322 DNA = conditions: reference intercalator; cited from earlier work
[7] = 10 μM complex, 100 μM DNA, buffer R-L

SMILES: [Cu+].c1cnc2c(c1)ccc1cccnc12.c1cnc2c(c1)ccc1cccnc12 [Cu(phen)2 +]
- footprint quality, distamycin [1]: lacks the necessary sequence neutrality
- footprint quality, EcoRI [2]: failed to footprint the protein
- 3'-shift of distamycin footprint [3]: 2-3 pair

SMILES: [Ru+2].c1ccc(-c2ccccn2)nc1.c1ccc(-c2ccccn2)nc1.c1ccc2nc3c4cccnc4c4ncccc4c3nc2c1 [Ru(bpy)2 (dppz)^2+]
- Rel. Lumi. (CT DNA; Buffer (50.0 mM NaCl), 25): 0.55
- Rel. Lumi. (CT DNA; Buffer (50.0 mM NaCl), 75): 0.53
- Rel. Lumi. (CT DNA; Buffer** (0.5 mM NaCl), 25): 0.61
- Rel. Lumi. (CT DNA; Buffer** (0.5 mM NaCl), 35): 0.06
- Rel. Lumi. (CT DNA; Buffer** (0.5 mM NaCl), 45): 0.59
- Rel. Lumi. (CT DNA; Buffer** (0.5 mM NaCl), 55): 0.55
- Rel. Lumi. (CT DNA; Buffer** (0.5 mM NaCl), 70): 0.47
- Rel. Lumi. (CT DNA; Buffer** (0.5 mM NaCl), 90): 0.23
- luminescence with B-form DNA ([4]; 10 μM complex, 100 μM DNA): highly luminescent
- luminescence λmax with B-form DNA ([4]; 10 μM complex, 100 μM DNA): 628 nm
- Rel. Lumi. ([4]; Buffer (50.0 mM NaCl), poly d(GC).d(GC), 25): 0.72
- luminescence with Z-form DNA [5, 7]: highly luminescent
- luminescence λmax with Z-form DNA [5, 7]: 640 nm
- effect on Z to B transition ([5]; circular dichroism, over hours): does not cause the Z to B transition
- Rel. Lumi. (poly d(AT).d(AT)): 0.68
- luminescence with poly r(AU).r(AU) (poly r(AU).r(AU); 10 μM complex, 100 μM RNA, buffer R): no luminescence
- Rel. Lumi. (poly r(AU).r(AU); Buffer (50.0 mM NaCl), 25): 0.01
- highest luminescence polarization, B-form (B-form DNA; 1 μM probe): 0.15
- limiting luminescence polarization, B-form (B-form DNA): 0.10
- highest luminescence polarization, Z-form (Z-form DNA; 1 μM complex, 100 μM DNA): 0.35
- limiting luminescence polarization, Z-form (Z-form DNA; 100 μM DNA): 0.14
- relative strength of binding, Z-form vs B-form (Z-form DNA; in words): binds better to the Z-form; also recorded: held more rigidly by Z-form than by the analogous B-form
- staining of DNA in agarose gels [6]: no background luminescence from the complex bound to agarose

SMILES: N=C1C(=N)c2ccccc2-c2ccccc21.N=C1C(=N)c2ccccc2-c2ccccc21.N=C1C(=N)c2ccccc2-c2ccccc21.[Ru+2] [Ru(phi)3^2+]
- aggregation in solution (calf thymus DNA): extensive aggregation
- stability (Stability / handling): does not decompose upon exposure to air or by continuous irradiation with visible light

SMILES: CC[n+]1c(-c2ccccc2)c2cc(N)ccc2c2ccc(N)cc21 [ethidium, reference compound]
- staining of DNA in agarose gels [6]: found to stain DNA imbedded in the agarose gels
- Unwinding Angle (pBR322 DNA): 26 °
